According to patent publication US20260308149A1, “NOVEL CARBOXAMIDE DERIVATIVES” (ANGELINI PHARMA S.P.A., priority 2023, published 2026):

Molecular target: T1, human Kv7.2 (Homo sapiens, UniProt O43526)
T1 construct: expressed in transfected cells
Assay: activation (potentiation) of Kv7.2 current, SyncroPatch 384 electrophysiology in CHO cells stably expressing human Kv7.2
Assay type: cell-based
Conditions: human Kv7.2 in CHO cells; in presence of 5.6 μM zinc pyrithione; % activation relative to 30 μM ML-213
Method in brief: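 CHO cells stably expressing human Kv7.2 were recorded by automated patch clamp, holding at −60 mV with steps to −30, 40 and −90 mV; current was read at the −90 mV step. Compounds were added after 5.6 μM zinc pyrithione pre-activation. % activation was normalised between 30 μM ML-213 (max) and TEA+XE-991 (leak), with EC50 from a logistic fit.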

T1 sequence (O43526 whole entry): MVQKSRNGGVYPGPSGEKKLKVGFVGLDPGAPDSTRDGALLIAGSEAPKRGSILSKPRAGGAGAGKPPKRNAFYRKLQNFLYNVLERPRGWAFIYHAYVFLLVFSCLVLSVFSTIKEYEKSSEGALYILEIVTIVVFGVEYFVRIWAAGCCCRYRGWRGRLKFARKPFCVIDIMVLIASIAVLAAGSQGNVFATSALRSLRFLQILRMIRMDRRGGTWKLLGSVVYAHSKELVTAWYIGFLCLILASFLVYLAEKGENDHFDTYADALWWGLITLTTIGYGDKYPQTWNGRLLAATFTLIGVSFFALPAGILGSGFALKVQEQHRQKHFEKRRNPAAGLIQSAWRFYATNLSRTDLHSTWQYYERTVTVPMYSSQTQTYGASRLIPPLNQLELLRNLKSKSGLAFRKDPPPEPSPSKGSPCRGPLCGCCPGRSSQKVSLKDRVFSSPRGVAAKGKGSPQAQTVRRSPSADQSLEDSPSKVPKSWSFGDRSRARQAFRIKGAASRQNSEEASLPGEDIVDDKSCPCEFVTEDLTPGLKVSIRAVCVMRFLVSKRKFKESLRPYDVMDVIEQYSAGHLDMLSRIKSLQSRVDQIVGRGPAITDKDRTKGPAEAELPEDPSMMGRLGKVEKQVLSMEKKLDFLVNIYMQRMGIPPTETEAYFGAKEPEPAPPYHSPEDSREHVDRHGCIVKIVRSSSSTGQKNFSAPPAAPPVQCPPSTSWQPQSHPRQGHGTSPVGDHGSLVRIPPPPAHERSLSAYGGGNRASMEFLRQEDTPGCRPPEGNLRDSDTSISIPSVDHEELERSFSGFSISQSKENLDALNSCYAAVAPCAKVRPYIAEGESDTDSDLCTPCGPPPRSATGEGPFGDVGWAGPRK

EC50 [µM] | Compound
0.13 | CO[C@@](C)(CNC(=O)C1CC12CCOCC2)c1cccc(Cl)c1 (stereo partly drawn) [Example 84, N-[(2R)-2-(3-chlorophenyl)-2-methoxy-propyl]-6-oxaspiro[2.5]octane-2-carboxamide]
1.14 | N#Cc1cccc(C2(CNC(=O)[C@H]3C[C@@H]3c3ccccc3)COC2)c1 [Example 85, (1S,2S)—N-[[3-(3-cyanophenyl)oxetan-3-yl]methyl]-2-phenyl-cyclopropanecarboxamide]
5.62 | O=C(NC(CO)C1(c2cccc(Cl)c2)CC1)[C@H]1C[C@@H]1c1ccccc1 (stereo partly drawn) [Example 86, (1S,2S)—N-[1-[1-(3-chlorophenyl)cyclopropyl]-2-hydroxy-ethyl]-2-phenyl-cyclopropanecarboxamide]
0.06 | N#Cc1cccc(C2(CNC(=O)[C@H]3C[C@@H]3c3ccccc3)OCC2(F)F)c1 (stereo partly drawn) [Example 87, (1S,2S)—N-[[2-(3-cyanophenyl)-3,3-difluoro-oxetan-2-yl]methyl]-2-phenyl-cyclopropanecarboxamide]
0.2 | N#Cc1cccc(C2(CNC(=O)[C@H]3C[C@@H]3c3ccccc3)CCC(=O)O2)c1 (stereo partly drawn) [Example 88, (1S,2S)—N-[[2-(3-cyanophenyl)-5-oxo-tetrahydrofuran-2-yl]methyl]-2-phenyl-cyclopropanecarboxamide]
2.79 | N#Cc1cccc(C2(CNC(=O)CC3CCCCC3)COC2)c1 [Example 89, N-[[3-(3-cyanophenyl)oxetan-3-yl]methyl]-2-cyclohexyl-acetamide]
0.96 | N#Cc1cccc(C2(CNC(=O)CC3CCCCC3)CCC(=O)O2)c1 (stereo not shown) [Example 90, N-[[2-(3-cyanophenyl)-5-oxo-tetrahydrofuran-2-yl]methyl]-2-cyclohexyl-acetamide]
1.12 | N#Cc1cccc(C2(CNC(=O)CC3CCCCC3)OCC2(F)F)c1 (stereo not shown) [Example 91, N-[[2-(3-cyanophenyl)-3,3-difluoro-oxetan-2-yl]methyl]-2-cyclohexyl-acetamide]
1.81 | O=C(NCC(CCO)c1cccc(Cl)c1)[C@H]1C[C@@H]1c1ccccc1 (stereo partly drawn) [Example 92, (1S,2S)—N-[2-(3-chlorophenyl)-4-hydroxy-butyl]-2-phenyl-cyclopropanecarboxamide]
5.43 | N#Cc1cccc([C@]2(CNC(=O)CC3CCCCC3)CCO2)c1 [Example 93, N-[[(2S)-2-(3-cyanophenyl)oxetan-2-yl]methyl]-2-cyclohexyl-acetamide]
5.62 | N#Cc1cccc([C@@]2(CNC(=O)CC3CCCCCC3)CCO2)c1 [Example 94, N-[[(2R)-2-(3-cyanophenyl)oxetan-2-yl]methyl]-2-cycloheptyl-acetamide]
2.55 | N#Cc1cccc([C@]2(CNC(=O)[C@H]3C[C@@H]3C(F)(F)F)CCO2)c1 [Example 95, (1S,2S)—N-[[(2S)-2-(3-cyanophenyl)oxetan-2-yl]methyl]-2-(trifluoromethyl)cyclopropanecarboxamide]
8.54 | N#Cc1cccc([C@]2(CNC(=O)C3C(F)(F)C34CCC4)CCO2)c1 (stereo partly drawn) [Example 96, N-[[(2S)-2-(3-cyanophenyl)oxetan-2-yl]methyl]-2,2-difluoro-spiro[2.3]hexane-1-carboxamide]
1.28 | N#Cc1cccc([C@@]2(CNC(=O)CC3CC4CCC3C4)CCO2)c1 (stereo partly drawn) [Example 97, N-[[(2R)-2-(3-cyanophenyl)oxetan-2-yl]methyl]-2-norboman-2-yl-acetamide]
6.65 | N#Cc1cccc([C@@]2(CNC(=O)C3CC4CCC3CC4)CCO2)c1 (stereo partly drawn) [Example 98, N-[[(2R)-2-(3-cyanophenyl)oxetan-2-yl]methyl]bicyclo[2.2.2]octane-2-carboxamide]
0.23 | O=C(NCC1(c2cccc(OC(F)F)n2)CCO1)[C@H]1C[C@@H]1c1ccccc1 (stereo partly drawn) [Example 99, (1S,2S)—N-[[2-[6-(difluoromethoxy)-2-pyridyl]oxetan-2-yl]methyl]-2-phenyl-cyclopropanecarboxamide]
9.76 | N#Cc1cccc([C@]2(CNC(=O)C3CCC34CCC4)CCO2)c1 (stereo partly drawn) [Example 100, N-[[(2S)-2-(3-cyanophenyl)oxetan-2-yl]methyl]spiro[3.3]heptane-3-carboxamide]
3.01 | N#Cc1cccc([C@]2(CNC(=O)C3CCC4(CCC4)C3)CCO2)c1 (stereo partly drawn) [Example 102, N-[[(2S)-2-(3-cyanophenyl)oxetan-2-yl]methyl]spiro[3.4]octane-7-carboxamide]
6.14 | N#Cc1cccc([C@]2(CNC(=O)C(F)CC3CCCC3)CCO2)c1 (stereo partly drawn) [Example 103, N-[[(2S)-2-(3-cyanophenyl)oxetan-2-yl]methyl]-3-cyclopentyl-2-fluoro-propanamide]
0.51 | N#Cc1cccc([C@]2(CNC(=O)C3CCCC34CCC4)CCO2)c1 (stereo partly drawn) [Example 104, N-[[(2S)-2-(3-cyanophenyl)oxetan-2-yl]methyl]spiro[3.4]octane-8-carboxamide]

EC50 [µM] | Compound
0.91 | N#Cc1cccc([C@]2(CNC(=O)C3CC4(C3)CC43CCC3)CCO2)c1 (stereo partly drawn) [Example 105, N-[[(2S)-2-(3-cyanophenyl)oxetan-2-yl]methyl]dispiro[3.0.3^5.1^4]nonane-7-carboxamide]
4.08 | N#Cc1cccc([C@]2(CNC(=O)C3CC34CCOCC4)CCO2)c1 (stereo partly drawn) [Example 106, N-[[(2S)-2-(3-cyanophenyl)oxetan-2-yl]methyl]-6-oxaspiro[2.5]octane-2-carboxamide]
0.41 | N#Cc1cccc([C@]2(CNC(=O)CC3CC4CCC3C4)CCO2)c1 (stereo partly drawn) [Example 108, N-[[(2S)-2-(3-cyanophenyl)oxetan-2-yl]methyl]-2-norbornan-2-yl-acetamide]
0.71 | N#Cc1cccc([C@]2(CNC(=O)CC34CCC(CC3)C4)CCO2)c1 [Example 109, N-[[(2S)-2-(3-cyanophenyl)oxetan-2-yl]methyl]-2-norbornan-1-yl-acetamide]
2.01 | N#Cc1cccc([C@]2(CNC(=O)CC3(O)CC4CCC3C4)CCO2)c1 (stereo partly drawn) [Example 111, N-[[(2S)-2-(3-cyanophenyl)oxetan-2-yl]methyl]-2-(2-hydroxynorbornan-2-yl)acetamide]
0.09 | N#Cc1cccc([C@]2(CNC(=O)[C@H]3C[C@@H]3C3CCCC3)CCO2)c1 [Example 112, (1S,2R)—N-[[(2S)-2-(3-cyanophenyl)oxetan-2-yl]methyl]-2-cyclopentyl-cyclopropanecarboxamide]
2.82 | O=C(NCC1(c2cccc(OC(F)F)n2)CCO1)C1CC12CCOCC2 (stereo not shown) [Example 115, N-[[2-[6-(difluoromethoxy)-2-pyridyl]oxetan-2-yl]methyl]-6-oxaspiro[2.5]octane-2-carboxamide]
0.61 | N#Cc1cccc([C@]2(CNC(=O)CC3CC4(CCC4)C3)CCO2)c1 [Example 116, N-[[(2S)-2-(3-cyanophenyl)oxetan-2-yl]methyl]-2-spiro[3.3]heptan-2-yl-acetamide]
4.33 | O=C(CC1CCCCC1)NCC1(c2ccnc(OC(F)F)c2)CCO1 (stereo not shown) [Example 117, 2-cyclohexyl-N-[[2-[2-(difluoromethoxy)-4-pyridyl]oxetan-2-yl]methyl]acetamide]
5.52 | O=C(NCC1(c2ccnc(OC(F)F)c2)CCO1)C1CC12CCC(F)(F)CC2 (stereo not shown) [Example 118, N-[[2-[2-(difluoromethoxy)-4-pyridyl]oxetan-2-yl]methyl]-6,6-difluoro-spiro[2.5]octane-2-carboxamide]
0.66 | O=C(CC1CCCCC1)NCC1(c2cccc(OC(F)F)n2)CCO1 (stereo not shown) [Example 119, 2-cyclohexyl-N-[[2-[6-(difluoromethoxy)-2-pyridyl]oxetan-2-yl]methyl]acetamide]
0.26 | O=C(NCC1(c2cccc(OC(F)F)n2)CCO1)C1CC12CCC(F)(F)CC2 (stereo not shown) [Example 120, N-[[2-[6-(difluoromethoxy)-2-pyridyl]oxetan-2-yl]methyl]-6,6-difluoro-spiro[2.5]octane-2-carboxamide]
2.51 | CCc1cc(C2(CNC(=O)[C@H]3C[C@@H]3c3ccccc3)CCO2)ccn1 (stereo partly drawn) [Example 121, (1S,2S)—N-[[2-(2-ethyl-4-pyridyl)oxetan-2-yl]methyl]-2-phenyl-cyclopropanecarboxamide]
0.17 | O=C(NCC1(c2cccc(OC(F)F)n2)CCO1)C1CC12CCCCC2 (stereo not shown) [Example 123, N-[[2-[6-(difluoromethoxy)-2-pyridyl]oxetan-2-yl]methyl]spiro[2.5]octane-2-carboxamide]
2.19 | N#Cc1cc(C2(CNC(=O)[C@H]3C[C@@H]3c3ccccc3)CCO2)ccc1F (stereo partly drawn) [Example 125, (1S,2S)—N-[[2-(3-cyano-4-fluoro-phenyl)oxetan-2-yl]methyl]-2-phenyl-cyclopropanecarboxamide]
0.47 | N#Cc1cccc([C@]2(CNC(=O)[C@H]3C[C@@H]3c3ccc(Br)cc3)CCO2)c1 [Example 128, (1S,2S)-2-(4-bromophenyl)-N-[[(2S)-2-(3-cyanophenyl)oxetan-2-yl]methyl]cyclopropanecarboxamide]
4.24 | O=C(NCC1(c2ccnc(OC(F)F)c2)CCO1)[C@H]1C[C@@H]1C(F)(F)F (stereo partly drawn) [Example 129, (1S,2S)—N-[[2-[2-(difluoromethoxy)-4-pyridyl]oxetan-2-yl]methyl]-2-(trifluoromethyl)cyclopropanecarboxamide]
0.68 | O=C(NCC1(c2cccc(OC(F)F)n2)CCO1)[C@H]1C[C@@H]1C(F)(F)F (stereo partly drawn) [Example 130, (1S,2S)—N-[[2-[6-(difluoromethoxy)-2-pyridyl]oxetan-2-yl]methyl]-2-(trifluoromethyl)cyclopropanecarboxamide]
5.95 | N#Cc1cccc([C@]2(CNC(=O)C(F)C3CC4CCC3C4)CCO2)c1 (stereo partly drawn) [Example 131, N-[[(2S)-2-(3-cyanophenyl)oxetan-2-yl]methyl]-2-fluoro-2-norbornan-2-yl-acetamide]
8.24 | O=C(CC1(C(F)(F)F)CC1)NCC1(c2cccc(OC(F)F)n2)CCO1 (stereo not shown) [Example 132, N-[[2-[6-(difluoromethoxy)-2-pyridyl]oxetan-2-yl]methyl]-2-[1-(trifluoromethyl)cyclopropyl]acetamide]
